“And” between values parts separate entries of the source, which are not always exact repeats. Equal values may be shown once.
Key:
HEK-293 EV cells = test: Calcium 5 dye [Ca]i assay in HEK-293 empty vector (EV) cells; type: cell-based, human; conditions: 10 µM
Method: (§1) The cells were incubated in a 5% CO2 humidified atmosphere at 37 °C. Upon reaching approximately 90% confluence in 75 cm^2 flasks, they were trypsinized and transferred to poly-D-lysine coated 96-well plates (Corning, Castle Hill, NSW, Australia) in L-15 medium supplemented with 1% FBS, 100 U penicillin and 100 µg streptomycin ml^−1 (1% P/S), and 15 mM glucose (80 µL volume per well). After an overnight incubation (maximum of 16 h) in humidified room air at 37 °C, TRPV1 and TRPA1 receptor expression was induced 4 h before experimentation by adding to each well 10 µL tetracycline solution to a final concentration of 1 µg ml^−1.
Intracellular calcium [Ca]i levels were assessed using the calcium 5 kit from Molecular Devices (# R8186, Sunnyvale, CA, USA) on a FlexStation 3 Microplate Reader (Molecular Devices, Sunnyvale, CA, USA). […] 90 µL of the dye were loaded into each well of the plate and incubated for 1 h before reading in the FlexStation 3 at 37 °C. […] After 1 min of baseline recording, 20 µL of the drug, dissolved in HBSS with 1% dimethyl sulfoxide (DMSO) (cat # D2650; Sigma-Aldrich, Melbourne, Australia) was added (final DMSO concentration was 0.1% in well).
(§2) The response to agonists was expressed as a percentage change from the average baseline measurement taken for 60s before adding drug. Changes in fluorescence resulting from the addition of solvent were subtracted before normalization to baseline. Concentration–response curves (CRC), Emax and EC50 values were determined using a three-parameter logistic equation (GraphPad Prism, San Diego, CA, USA). […] Potencies were expressed as pEC50, which is the negative log of EC50 in moles per litre (Molar). Where appropriate, unpaired Student’s t-test were used to compare the responses of individual compounds in different conditions, while a one-way ANOVA followed by Dunnett’s multiple comparisons test was used to assess potential differences in responses elicited by a range of compounds. P < 0.05 was considered statistically significant.

human TRPV1 = molecular target: T1, human TRPV1 (Homo sapiens, UniProt Q8NER1); test: Calcium 5 dye [Ca]i assay in HEK-293 Flp-In T-REx cells expressing TRPV1 (agonist response); type: cell-based; conditions: for Elevation of [Ca]i in HEK-293 TRPV1 cells compared with HEK-293 EV cells / Change of Ca5 fluorescence, Mean ± SEM, TRPV1 (10 µM): 10 µM; for Change of Ca5 fluorescence, Mean ± SEM, TRPV1 (10 µM): HEK-293 TRPV1 cells, percentage of predrug baseline; for TRPV1 response, Mean± SEM (N): 30 µM, one-way ANOVA comparison with capsaicin 10 µM; for Emax at 30 µM: HEK293, read-out: Emax ± SEM % TRPV1 (30 µM); for Change in Ca5 fluorescence, individual experiments (CRC raw data): TRPV1 cells
T1 construct: Life Technologies (cells); host or cells: Flp-In T-REx HEK-293
Method: as §1
(§3) Intracellular calcium [Ca]i levels were assessed using the calcium 5 kit from Molecular Devices (# R8186, Sunnyvale, CA, USA) on a FlexStation 3 Microplate Reader (Molecular Devices, Sunnyvale, CA, USA). […] Probenecid (cat # 50027; Biotium) which helps to prevent expulsion of calcium indicator from the cells was added to a final concentration of 1.25 mM. 90 µL of the dye were loaded into each well of the plate and incubated for 1 h before reading in the FlexStation 3 at 37 °C. Fluorescence was recorded every 2 s (λ excitation = 485 nm, λ emission = 525 nm) for 5 min. After 1 min of baseline recording, 20 µL of the drug, dissolved in HBSS with 1% dimethyl sulfoxide (DMSO) (cat # D2650; Sigma-Aldrich, Melbourne, Australia) was added (final DMSO concentration was 0.1% in well).
as §2

human TRPA1 = molecular target: T2, human TRPA1 (Homo sapiens, UniProt O75762); test: Calcium 5 dye [Ca]i assay in HEK-293 Flp-In T-REx cells expressing TRPA1 (agonist response); type: cell-based; conditions: for Change of Ca5 fluorescence, Mean ± SEM, TRPA1 (10 µM): HEK-293 TRPA1 cells, percentage of predrug baseline; for TRPA1 activation at the highest concentration tested / TRPA1 response compared with the highest concentration of cinnamaldehyde (300 µM) / TRPA1 response, Mean± SEM (N): 30 µM; for TRPA1 response, Mean± SEM (N): one-way ANOVA comparison with cinnamaldehyde 300 µM; for Emax at 30 µM: HEK293, read-out: Emax ± SEM % TRPA1 (30 µM); for Change in Ca5 fluorescence, individual experiments (CRC raw data): TRPA1 cells; for Elevation of [Ca]i in HEK-293 TRPA1 cells compared with HEK-293 EV cells: 10 µM (cinnamaldehyde 300 µM); for [Ca]i response (change in fluorescence), individual replicates: sheet Figure 3(E)
T2 construct: Life Technologies (cells); host or cells: Flp-In T-REx HEK-293
Method: as §1, §3, §2

[1] = HEK-293 EV cells, percentage of predrug baseline

T2 sequence (O75762 whole entry): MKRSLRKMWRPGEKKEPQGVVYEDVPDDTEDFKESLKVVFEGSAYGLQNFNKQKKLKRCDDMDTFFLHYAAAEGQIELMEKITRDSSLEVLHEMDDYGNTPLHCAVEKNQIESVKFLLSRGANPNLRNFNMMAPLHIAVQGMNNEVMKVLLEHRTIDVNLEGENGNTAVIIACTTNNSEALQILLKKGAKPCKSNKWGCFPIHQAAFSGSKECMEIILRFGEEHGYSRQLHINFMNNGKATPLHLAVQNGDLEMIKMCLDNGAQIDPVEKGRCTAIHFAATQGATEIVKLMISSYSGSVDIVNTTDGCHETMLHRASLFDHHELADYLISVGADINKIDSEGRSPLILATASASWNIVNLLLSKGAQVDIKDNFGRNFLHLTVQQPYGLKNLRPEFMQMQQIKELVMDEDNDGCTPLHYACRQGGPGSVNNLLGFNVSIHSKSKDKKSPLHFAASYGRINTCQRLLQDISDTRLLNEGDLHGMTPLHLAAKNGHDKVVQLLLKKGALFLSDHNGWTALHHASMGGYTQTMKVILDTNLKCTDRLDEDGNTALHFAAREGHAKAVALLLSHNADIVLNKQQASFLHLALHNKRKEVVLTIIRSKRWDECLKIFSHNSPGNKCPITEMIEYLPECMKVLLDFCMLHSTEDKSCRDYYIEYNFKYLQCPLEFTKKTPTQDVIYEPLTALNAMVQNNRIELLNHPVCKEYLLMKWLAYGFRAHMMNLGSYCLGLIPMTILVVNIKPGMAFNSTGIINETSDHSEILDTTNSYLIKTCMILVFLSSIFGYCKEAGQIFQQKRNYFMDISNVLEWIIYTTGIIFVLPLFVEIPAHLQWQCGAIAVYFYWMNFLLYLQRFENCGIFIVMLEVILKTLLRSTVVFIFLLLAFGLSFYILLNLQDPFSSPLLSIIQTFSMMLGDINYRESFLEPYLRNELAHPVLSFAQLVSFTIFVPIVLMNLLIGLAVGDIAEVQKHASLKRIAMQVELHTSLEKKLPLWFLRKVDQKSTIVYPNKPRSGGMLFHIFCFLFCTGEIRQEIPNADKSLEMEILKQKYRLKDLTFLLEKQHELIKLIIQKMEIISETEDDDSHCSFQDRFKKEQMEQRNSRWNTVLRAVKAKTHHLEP
T1 sequence (Q8NER1 whole entry): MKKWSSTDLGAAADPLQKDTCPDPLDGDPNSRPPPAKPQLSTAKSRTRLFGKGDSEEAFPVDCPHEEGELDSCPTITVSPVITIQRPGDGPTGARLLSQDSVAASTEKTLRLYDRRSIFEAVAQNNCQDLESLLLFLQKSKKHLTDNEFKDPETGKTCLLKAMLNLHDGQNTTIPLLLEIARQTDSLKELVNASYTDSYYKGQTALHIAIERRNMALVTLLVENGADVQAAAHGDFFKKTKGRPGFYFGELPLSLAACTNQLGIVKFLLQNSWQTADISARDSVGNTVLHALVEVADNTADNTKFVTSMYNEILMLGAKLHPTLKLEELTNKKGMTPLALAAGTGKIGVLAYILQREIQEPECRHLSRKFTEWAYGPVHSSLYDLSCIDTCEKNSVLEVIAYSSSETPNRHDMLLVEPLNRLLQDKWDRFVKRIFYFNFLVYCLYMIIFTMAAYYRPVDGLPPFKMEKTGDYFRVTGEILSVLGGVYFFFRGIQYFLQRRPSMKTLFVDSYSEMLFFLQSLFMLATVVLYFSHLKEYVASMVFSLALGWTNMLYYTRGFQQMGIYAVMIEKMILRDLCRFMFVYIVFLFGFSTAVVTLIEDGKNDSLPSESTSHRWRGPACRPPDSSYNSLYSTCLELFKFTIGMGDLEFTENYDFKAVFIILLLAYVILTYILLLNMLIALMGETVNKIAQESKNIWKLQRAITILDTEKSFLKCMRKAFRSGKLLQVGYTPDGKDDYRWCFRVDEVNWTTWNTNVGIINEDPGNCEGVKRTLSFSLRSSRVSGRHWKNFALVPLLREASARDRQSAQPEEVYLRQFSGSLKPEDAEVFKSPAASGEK

Compound | Elevation of [Ca]i in HEK-293 TRPV1 cells compared with HEK-293 EV cells (human TRPV1) | Change of Ca5 fluorescence, Mean ± SEM, TRPV1 (10 µM) (human TRPV1) | TRPV1 response, Mean± SEM (N) (human TRPV1) | Emax at 30 µM (human TRPV1) | Change in Ca5 fluorescence, individual experiments (CRC raw data) (human TRPV1; log concentration -4.52288 (M)) | Change in Ca5 fluorescence, individual experiments (CRC raw data) (human TRPV1; log concentration -5 (M)) | Change in Ca5 fluorescence, individual experiments (CRC raw data) (human TRPV1; log concentration -5.52288 (M)) | Change in Ca5 fluorescence, individual experiments (CRC raw data) (human TRPV1; log concentration -6 (M)) | Change in Ca5 fluorescence, individual experiments (CRC raw data) (human TRPV1; log concentration -6.52288 (M)) | Change in Ca5 fluorescence, individual experiments (CRC raw data) (human TRPV1; log concentration -7 (M)) | Change of Ca5 fluorescence, Mean ± SEM, TRPA1 (10 µM) (human TRPA1) | TRPA1 activation at the highest concentration tested (human TRPA1) | TRPA1 response compared with the highest concentration of cinnamaldehyde (300 µM) (human TRPA1) | TRPA1 response, Mean± SEM (N) (human TRPA1) | Emax at 30 µM (human TRPA1) | Change in Ca5 fluorescence, individual experiments (CRC raw data) (human TRPA1; log concentration -4.52288 (M)) | Change in Ca5 fluorescence, individual experiments (CRC raw data) (human TRPA1; log concentration -5 (M)) | Change in Ca5 fluorescence, individual experiments (CRC raw data) (human TRPA1; log concentration -5.52288 (M)) | Change in Ca5 fluorescence, individual experiments (CRC raw data) (human TRPA1; log concentration -6 (M)) | Change in Ca5 fluorescence, individual experiments (CRC raw data) (human TRPA1; log concentration -6.52288 (M)) | other results
CCCCC/C=C\C/C=C\CCCCCCCC(=O)OC(CO)CO [2-LG, 2-linoleoyl glycerol] | significantly greater | 41 ± 13 % | 75± 56 | 75 ± 13% | 94.4158 and 105.55 and 25.614 and 76.6153 and 45.9507 and 101.137 | 77.397 and 64.9743 and 11.4263 and 68.0539 and 10.4174 and 14.0616 | 11.4427 and 8.3913 and 3.912 and 22.8641 and 8.0659 and 6.3713 | 1.494 and 8.29 and 4.971 and 3.518 and 4.176 and 6.083 | -0.2355 and 4.786 and 26.5089 and 15.6203 and 3.581 and 2.28 | 0.8392 and 7.338 and 6.807 and 12.2096 and 4.264 and 3.998 | 6 ± 2% | no effect | significantly smaller | 10± 60 | 10 ± 4% | 12.5375 and 5.756 and 5.697 and 4.08 and 3.702 and 27.8122 | 11.4202 and 3.2095 and 1.996 and 7.055 and 3.7574 and 11.3273 | 11.369 and 3.556 and 1.657 and 5.485 | 12.4294 and 3.284 and 5.41 and 5.662 and 4.232 and 5.177 | 12.1064 and 3.832 and 1.455 and 7.527 | Change of Ca5 fluorescence, Mean ± SEM, EV (10 µM) (HEK-293 EV cells): 4 ± 1%; Change in Ca5 fluorescence, individual experiments (CRC raw data) (human TRPA1; log concentration -7 (M)): 15.3703 and 7.007 and 2.201 and 137.719
CCCCC/C=C\C/C=C\C/C=C\C/C=C\CCCC(=O)OC(CO)CO [2-AG, 2-arachidonoylglycerol] | did not produce a notable change | 30 ± 12% | 78± 56 | 78 ± 26% | 27.3329 and 112.734 and 162.217 and 44.4524 and 123.109 and 0.2559 | 7.357 and 86.123 and 26.0517 and 22.0298 and 37.7022 and 3.715 | 1.982 and 59.8686 and 3.625 and 7.304 and 11.7183 and 5.763 | 3.178 and 11.4308 and 1.524 and 2.296 and 1.51 and 5.0359 | 2.799 and 5.91 and 1.131 and 13.0737 and 2.188 and 2.217 | 3.868 and 2.533 and 1.007 and 9.752 and 4.95 and 2.563 | 6 ± 1% | activated TRPA1 | significantly smaller | 109 ± 60 | 109 ± 68% | – | – | – | – | – | Change of Ca5 fluorescence, Mean ± SEM, EV (10 µM) (HEK-293 EV cells; [1]): 4 ± 2%; Elevation of [Ca]i in HEK-293 TRPA1 cells compared with HEK-293 EV cells (human TRPA1): did not produce a change; [Ca]i response (change in fluorescence), individual replicates (human TRPA1; concentration -4.52288 (log)): 14.9622 and 7.179 and 134.366 and 9.127 and 431.447 and 54.77; [Ca]i response (change in fluorescence), individual replicates (human TRPA1; concentration -5 (log)): 4.64 and 4.022 and 10.3661 and 3.3919 and 6.211 and 4.731; [Ca]i response (change in fluorescence), individual replicates (human TRPA1; concentration -5.52288 (log)): 6.153 and 3.314 and 8.987 and 3.008 and 4.615 and 3.811; [Ca]i response (change in fluorescence), individual replicates (human TRPA1; concentration -6 (log)): 6.477 and 4.178 and 4.8275 and 2.1815 and 3.7711 and 3.334; [Ca]i response (change in fluorescence), individual replicates (human TRPA1; concentration -6.52288 (log)): 5.571 and 5.908 and 5.712 and 6.071 and 7.256 and 4.936; [Ca]i response (change in fluorescence), individual replicates (human TRPA1; concentration -7 (log)): 4.596 and 9.253 and 10.2641 and 5.393 and 9.276 and 4.379
CCCCC/C=C\C/C=C\C/C=C\CCCCC(=O)NCCO [γ-LEA, γ-linolenoyl ethanolamide] | significantly greater | 277 ± 67 % | 354± 56 | – | 350.183 and 323.986 and 542.155 and 300.489 and 279.486 and 328.331 | 408.892 and 291.398 and 513.101 and 87.8703 and 117.804 and 243.201 | 21.7947 and 80.3389 and 37.6766 and 7.854 and 2.348 and 95.5783 | 179.174 and 9.167 and 5.6781 and 5.979 and 3.41 and 2.934 | 5.188 and 2.355 and 8.6025 and 1.698 and 1.3988 and 2.387 | 0.9319 and 4.487 and 3.741 and 0.8649 and 0.1851 and 3.24 | 87 ± 32 % | activated TRPA1 | did not differ | 311 ± 60 | – | 346.049 and 274.809 and 332.645 and 317.863 and 295.869 and 300.839 | 11.624 and 8.016 and 83.7476 and 222.133 and 100.409 and 97.3092 | 5.237 and 1.372 and 11.2552 and 5.494 and 2.231 and 27.0912 | 2.963 and 1.112 and 12.1911 and 2.48 and 2.092 and 1.749 | 0.5786 and 1.167 and 6.112 and 4.171 and 1.807 and 1.825 | Change of Ca5 fluorescence, Mean ± SEM, EV (10 µM) (HEK-293 EV cells; [1]): 11 ± 2%; Maximal TRPV1 response compared with the highest concentration of capsaicin (human TRPV1; 30 µM vs capsaicin 10 µM): did not differ; Emax ± SEM % TRPV1 (30 µM) (human TRPV1; highest tested concentration (30 µM) or derived from concentration-response curves (DHEA, AEA, NADA, capsaicin)): 354 ± 39%; Elevation of [Ca]i in HEK-293 TRPA1 cells compared with HEK-293 EV cells (human TRPA1): significantly greater; Emax ± SEM % TRPA1 (30 µM) (human TRPA1; highest tested concentration (30 µM) or derived from concentration-response curves (cinnamaldehyde)): 311 ± 11%; Change in Ca5 fluorescence, individual experiments (CRC raw data) (human TRPA1; log concentration -7 (M)): 0.7736 and 1.971 and 6.385 and 5.071 and 2.235 and 0.6536
